Results reported in publication PMC12115217, “3,3′-((3-Hydroxyphenyl)azanediyl)dipropionic Acid Derivatives as a Promising Scaffold Against Drug-Resistant Pathogens and Chemotherapy-Resistant Cancer” (Pathogens, 2025).
≈ marks a conversion by molar mass, not a printed value. Where two headings read alike, the source gives them in different places.

Key:
S. aureus TCH 1516 [1] = experiment: Broth microdilution MIC, S. aureus TCH 1516; type: cell-based, Staphylococcus aureus; details: mecA MRSA isolate, USA300 lineage; CAMHB, 18 ± 2 h
Source text: (§1) The multidrug-resistant S. aureus strain TCH 1516 [USA 300-HOU-MR] was obtained from the American Type Culture Collection (ATCC, Manassas, VA, USA) (Table 1). E. faecalis AR-0671, multidrug-resistant E. coli AR-0001, K. pneumoniae AR-0003, P. aeruginosa AR-1114, and A. baumannii AR-0273 strains were acquired from the Centers for Disease Control and Prevention (CDC) AR isolate bank (Table 1). Prior to the initiation of this study, all microbial strains were stored in commercial cryopreservation systems at a temperature of −80 °C. The strains were cultivated on Columbia sheep blood agar (Becton Dickinson, Franklin Lakes, NJ, USA) or potato dextrose agar (PDA) for Candida (Becton Dickinson, Franklin Lakes, NJ, USA).
(§2) The antimicrobial activity of 3-((3-hydroxyphenyl)amino)propanoic acid derivatives was assessed by using the broth microdilution method, following the guidelines outlined by the Clinical Laboratory Standards Institute (CLSI), with modifications. In brief, the compounds were dissolved in dimethyl sulfoxide (DMSO) to attain a final concentration of 25–30 mg/mL. Vancomycin hydrochloride (MedChem express, Cat. No. HY-17362), cefazolin (MedChem express, Cat. No. HY-B1892), and meropenem (MedChem express, Cat. No. HY-13678) were used as control antimicrobial drugs and were dissolved in DMSO as described before. Dilution series were prepared in deep 96-well microplates to achieve a two-fold concentration range of 0.25, 0.5, 1, 2, 4, 8, 16, 32, and 64 µg/mL, utilizing cation-adjusted Mueller–Hinton broth (CAMHB) as the growth medium. The microplates containing the dilution series were then inoculated with fresh cultures of each tested organism to reach a final concentration of 5 × 10^4 CFU (colony-forming units) of the test organism in media containing 1% DMSO and 1× drug concentration, with a volume of 200 µL per well. Wells that were inoculated with medium containing 1% DMSO served as positive controls. Subsequently, the microplates were incubated at 35 ± 1 °C for 18 ± 2 h. Following the incubation period, the plates were examined by using a manual microplate viewer (Sensititre Manual Viewbox, ThermoFisher Scientific, Waltham, MA, USA). […] All experiments were conducted in duplicate with three technical replicates for each condition.

E. faecalis AR-0671 = experiment: Broth microdilution MIC, E. faecalis AR-0671; type: cell-based, Enterococcus faecalis; details: for MIC: Enterococcus faecalis
Source text: as §1, §2

E. coli AR-0001 [2] = experiment: Broth microdilution MIC, E. coli AR-0001; type: cell-based, Escherichia coli; details: for minimal inhibitory concentration (MIC) E. coli AR-0001: multidrug-resistant, KPC-3, CAMHB; for MIC: Escherichia coli, AR0001, read-out: minimal inhibitory concentration (MIC) E. coli AR-0001
Source text: as §1, §2

K. pneumoniae AR-0003 [3] = experiment: Broth microdilution MIC, K. pneumoniae AR-0003; type: cell-based, Klebsiella pneumoniae; details: for minimal inhibitory concentration (MIC) K. pneumoniae AR-0003: KPC-3, CAMHB; for MIC: Klebsiella pneumoniae, AR0003, read-out: minimal inhibitory concentration (MIC) K. pneumoniae AR-0003
Source text: as §1, §2

P. aeruginosa AR-1114 [4] = experiment: Broth microdilution MIC, P. aeruginosa AR-1114; type: cell-based, Pseudomonas aeruginosa; details: for minimal inhibitory concentration (MIC) P. aeruginosa AR-1114: IMP-15, CAMHB; for MIC: Pseudomonas aeruginosa, AR1114, read-out: minimal inhibitory concentration (MIC) P. aeruginosa AR-1114
Source text: as §1, §2

A. baumannii AR-0273 = experiment: Broth microdilution MIC, A. baumannii AR-0273; type: cell-based, Acinetobacter baumannii; details: for MIC: Acinetobacter baumannii
Source text: as §1, §2

FaDu cells = experiment: MTT cell viability at fixed 100 µM, FaDu cells; type: cell-based; details: 24 h, described in words (Figure 2)
Protocol: Test compounds 2–25 were dissolved in hybridoma-grade dimethyl sulfoxide (Millipore, Sigma, Burlington, MA, USA) to prepare stock solutions at concentrations of 10–25 mg/mL. […] For in vitro anticancer activity screening, the compounds were thawed at room temperature, protected from light, and the aliquots were diluted in complete cell culture media to achieve a final concentration of 100 µM and used for the in vitro assays. The cytotoxicity assays were performed in triplicate.
FaDu cells were obtained from the American Type Culture Collection (Rockville, MD, USA). HEK293 cells were kindly provided by Dr. Iliev lab at the Jill Roberts Institute for Inflammatory Bowel Disease, Weill Cornel Medicine of Cornel University (New York, NY, USA). All cells were cultivated in Dulbecco’s Modified Eagle Medium/Nutrient Mixture F-12 (DMEM/F-12) (Gibco, Waltham, MA, USA), 10% fetal bovine serum (FBS) (Gibco, Waltham, MA, USA), 100 U/mL penicillin, and 100 μg/mL streptomycin (P/S) (Gibco, Waltham, MA, USA). Culturing conditions were maintained at 37 °C in a humidified atmosphere containing 5% CO2. The culture medium was refreshed every 2–3 days, and cells were passaged upon reaching 70–80% confluence.
The in vitro inhibitory effects of the compounds were assessed by using the MTT assay. Briefly, cells were plated in 96-well plates at a density of 1 × 10⁴ cells per well. After the cells were allowed to adhere overnight at 37 °C in 5% CO₂, they were treated with compounds at a concentration of 100 µM in triplicate. Following a 20 h incubation, the MTT reagent was added, and the cells were further incubated for 4 h. The resulting formazan was solubilized in anhydrous DMSO, and absorbance was measured at 570 nm by using a microplate reader. Cell viability was calculated by using the following formula: ([AE − AB]/[AC − AB]) × 100%, where AE, AC, and AB represent the absorbance values of experimental samples, untreated controls, and blank wells, respectively. Data analysis was performed by using GraphPad Prism or QuickCalcs.

S. aureus TCH 1516 [5] = experiment: Broth microdilution MIC, S. aureus TCH 1516; type: cell-based; details: Staphylococcus aureus
E. coli AR-0001 [6] = experiment: Broth microdilution MIC, E. coli AR-0001; type: cell-based; details: Escherichia coli, AR0001; multidrug-resistant, KPC-3; CAMHB, 18 ± 2 h; read-out: minimal inhibitory concentration (MIC) E. coli AR-0001
K. pneumoniae AR-0003 [7] = experiment: Broth microdilution MIC, K. pneumoniae AR-0003; type: cell-based; details: Klebsiella pneumoniae, AR0003; KPC-3; CAMHB, 18 ± 2 h; read-out: minimal inhibitory concentration (MIC) K. pneumoniae AR-0003
P. aeruginosa AR-1114 [8] = experiment: Broth microdilution MIC, P. aeruginosa AR-1114; type: cell-based; details: Pseudomonas aeruginosa, AR1114; IMP-15; CAMHB, 18 ± 2 h; read-out: minimal inhibitory concentration (MIC) P. aeruginosa AR-1114
[9] = AR0671, CAMHB, 18 ± 2 h, read-out: minimal inhibitory concentration (MIC) E. faecalis AR-0671
[10] = AR0273, OXA-23, CAMHB, 18 ± 2 h, read-out: minimal inhibitory concentration (MIC) A. baumannii AR-0273
[11] = MRSA / USA300, mecA MRSA isolate, USA300 lineage, CAMHB, 18 ±, read-out: minimal inhibitory concentration (MIC) S. aureus TCH 1516
[12] = AR0671, read-out: minimal inhibitory concentration (MIC) E. faecalis AR-0671
[13] = AR0273, read-out: minimal inhibitory concentration (MIC) A. baumannii AR-0273
[14] = MRSA / USA300, read-out: minimal inhibitory concentration (MIC) S. aureus TCH 1516

Row | SMILES | minimal inhibitory concentration (MIC) S. aureus TCH 1516 (S. aureus TCH 1516 [1]) [µg/mL] | minimal inhibitory concentration (MIC) E. faecalis AR-0671 (E. faecalis AR-0671; CAMHB) [µg/mL] | MIC (E. faecalis AR-0671; [9]) [µg/mL] | minimal inhibitory concentration (MIC) E. coli AR-0001 (E. coli AR-0001 [2]) [µg/mL] | minimal inhibitory concentration (MIC) K. pneumoniae AR-0003 (K. pneumoniae AR-0003 [3]) [µg/mL] | minimal inhibitory concentration (MIC) P. aeruginosa AR-1114 (P. aeruginosa AR-1114 [4]) [µg/mL] | MIC (A. baumannii AR-0273; [10]) [µg/mL] | minimal inhibitory concentration (MIC) A. baumannii AR-0273 (A. baumannii AR-0273; OXA-23, CAMHB) [µg/mL] | MIC (S. aureus TCH 1516 [5]; [11]) [µg/mL] | MIC (E. coli AR-0001 [6]) [µg/mL] | MIC (K. pneumoniae AR-0003 [7]) [µg/mL] | MIC (P. aeruginosa AR-1114 [8]) [µg/mL] | post-treatment viability (MTT assay) (FaDu cells) | MIC (E. faecalis AR-0671; [12]) [µg/mL] | MIC (E. coli AR-0001 [2]) [µg/mL] | MIC (K. pneumoniae AR-0003 [3]) [µg/mL] | MIC (P. aeruginosa AR-1114 [4]) [µg/mL] | MIC (A. baumannii AR-0273; [13]) [µg/mL] | MIC (S. aureus TCH 1516 [5]; [14]) [µg/mL]
1 | O=C(O)CCN1CCC(=O)c2ccc(O)cc21 [Compound 7, 3-(7-Hydroxy-4-oxo-3,4-dihydroquinolin-1(2H)-yl)propanoic Acid] | >64 | >64 | > 64 | >64 | >64 | >64 | > 64 | >64 | > 64 | > 64 | > 64 | > 64 |  |  |  |  |  |  | 
2 | O=C(CCN(CCC(=O)NN=Cc1ccc([N+](=O)[O-])s1)c1cccc(O)c1)NN=Cc1ccc([N+](=O)[O-])s1 [Compound 16, 3,3′-((3-Hydroxyphenyl)azanediyl)bis(N′-((5-nitrothiophen-2-yl)methylene)propanehydrazide)] |  |  |  |  |  |  |  |  |  |  |  |  |  | 4 (≈ 7.15 µM) | 32 (≈ 57.2 µM) | > 64 | > 64 | > 64 | 1 (≈ 1.79 µM)
3 | COc1cc(C=NNC(=O)CCN(CCC(=O)NN=Cc2cc(OC)c(OC)c(OC)c2)c2cccc(O)c2)cc(OC)c1OC [Compound 13, 3,3′-((3-Hydroxyphenyl)azanediyl)bis(N′-(3,4,5-trimethoxybenzylidene)propanehydrazide)] | >64 | >64 | > 64 | >64 | >64 | >64 | > 64 | >64 | > 64 | > 64 | > 64 | > 64 |  |  |  |  |  |  | 
4 | O=C(CCN(CCC(=O)N/N=C/c1ccc([N+](=O)[O-])o1)c1cccc(O)c1)N/N=C/c1ccc([N+](=O)[O-])o1 [Compound 17] |  | >64 |  |  |  |  |  |  |  |  |  |  |  | > 64 | > 64 | > 64 | > 64 | > 64 | 16 (≈ 30.3 µM)
5 | O=C(CCN(CCC(=O)NN=Cc1ccc([N+](=O)[O-])cc1)c1cccc(O)c1)NN=Cc1ccc([N+](=O)[O-])cc1 [Compound 10, 3,3′-((3-Hydroxyphenyl)azanediyl)bis(N′-(4-nitrobenzylidene)propanehydrazide)] |  |  |  |  |  |  |  |  |  |  |  |  |  | 16 (≈ 29.2 µM) | > 64 | > 64 | > 64 | > 64 | 4 (≈ 7.31 µM)

The next lines start with results.

Row | minimal inhibitory concentration (MIC) S. aureus TCH 1516 (S. aureus TCH 1516 [1]) [µg/mL] | minimal inhibitory concentration (MIC) E. faecalis AR-0671 (E. faecalis AR-0671; CAMHB) [µg/mL] | MIC (E. faecalis AR-0671; [9]) [µg/mL] | minimal inhibitory concentration (MIC) E. coli AR-0001 (E. coli AR-0001 [2]) [µg/mL] | minimal inhibitory concentration (MIC) K. pneumoniae AR-0003 (K. pneumoniae AR-0003 [3]) [µg/mL] | minimal inhibitory concentration (MIC) P. aeruginosa AR-1114 (P. aeruginosa AR-1114 [4]) [µg/mL] | MIC (A. baumannii AR-0273; [10]) [µg/mL] | minimal inhibitory concentration (MIC) A. baumannii AR-0273 (A. baumannii AR-0273; OXA-23, CAMHB) [µg/mL] | MIC (S. aureus TCH 1516 [5]; [11]) [µg/mL] | MIC (E. coli AR-0001 [6]) [µg/mL] | MIC (K. pneumoniae AR-0003 [7]) [µg/mL] | MIC (P. aeruginosa AR-1114 [8]) [µg/mL] | SMILES | post-treatment viability (MTT assay) (FaDu cells) | MIC (E. faecalis AR-0671; [12]) [µg/mL] | MIC (E. coli AR-0001 [2]) [µg/mL] | MIC (K. pneumoniae AR-0003 [3]) [µg/mL] | MIC (P. aeruginosa AR-1114 [4]) [µg/mL] | MIC (A. baumannii AR-0273; [13]) [µg/mL] | MIC (S. aureus TCH 1516 [5]; [14]) [µg/mL]
6 | >64 | >64 | > 64 | >64 | >64 | >64 | > 64 | >64 | > 64 | > 64 | > 64 | > 64 | CC(C)=NNC(=O)CCN(CCC(=O)NN=C(C)C)c1cccc(O)c1 [Compound 19, 3,3′-((3-Hydroxyphenyl)azanediyl)bis(N′-(propan-2-ylidene)propanehydrazide)] | lower activity compared with compound 22 |  |  |  |  |  | 
7 | >64 | >64 | > 64 | >64 | >64 | >64 | > 64 | >64 | > 64 | > 64 | > 64 | > 64 | O=C(CCN(CCC(=O)NN=Cc1ccccc1)c1cccc(O)c1)NN=Cc1ccccc1 [Compound 8, 3,3′-((3-Hydroxyphenyl)azanediyl)bis(N′-(benzylidene)propanehydrazide)] |  |  |  |  |  |  | 
8 |  | >64 | > 64 | >64 | >64 | >64 | > 64 | >64 | 8 (≈ 28.4 µM) | > 64 | > 64 | > 64 | NNC(=O)CCN(CCC(=O)NN)c1cccc(O)c1 [Compound 4, 3,3′-((3-Hydroxyphenyl)azanediyl)di(propanehydrazide)] | moderate decrease in viability |  |  |  |  |  | 
9 | >64 | >64 | > 64 | >64 | >64 | >64 | > 64 | >64 | > 64 | > 64 | > 64 | > 64 | O=C(CCN(CCC(=O)N/N=C/c1ccsc1)c1cccc(O)c1)N/N=C/c1ccsc1 [Compound 18] |  |  |  |  |  |  | 
